The structures appear in SMILES notation. Some results are limits rather than exact numbers.

We go through 21 compounds from US20220388964A1 (HiberCell, Inc., priority 2019, published 2022).

In the first test the target is T1, GCN2 (Homo sapiens, UniProt Q9P2K8). The experiment in a line: TR-FRET assay for inhibition of GCN2 (Example 107, for Examples 40-72).
T1 sequence (Q9P2K8 whole entry): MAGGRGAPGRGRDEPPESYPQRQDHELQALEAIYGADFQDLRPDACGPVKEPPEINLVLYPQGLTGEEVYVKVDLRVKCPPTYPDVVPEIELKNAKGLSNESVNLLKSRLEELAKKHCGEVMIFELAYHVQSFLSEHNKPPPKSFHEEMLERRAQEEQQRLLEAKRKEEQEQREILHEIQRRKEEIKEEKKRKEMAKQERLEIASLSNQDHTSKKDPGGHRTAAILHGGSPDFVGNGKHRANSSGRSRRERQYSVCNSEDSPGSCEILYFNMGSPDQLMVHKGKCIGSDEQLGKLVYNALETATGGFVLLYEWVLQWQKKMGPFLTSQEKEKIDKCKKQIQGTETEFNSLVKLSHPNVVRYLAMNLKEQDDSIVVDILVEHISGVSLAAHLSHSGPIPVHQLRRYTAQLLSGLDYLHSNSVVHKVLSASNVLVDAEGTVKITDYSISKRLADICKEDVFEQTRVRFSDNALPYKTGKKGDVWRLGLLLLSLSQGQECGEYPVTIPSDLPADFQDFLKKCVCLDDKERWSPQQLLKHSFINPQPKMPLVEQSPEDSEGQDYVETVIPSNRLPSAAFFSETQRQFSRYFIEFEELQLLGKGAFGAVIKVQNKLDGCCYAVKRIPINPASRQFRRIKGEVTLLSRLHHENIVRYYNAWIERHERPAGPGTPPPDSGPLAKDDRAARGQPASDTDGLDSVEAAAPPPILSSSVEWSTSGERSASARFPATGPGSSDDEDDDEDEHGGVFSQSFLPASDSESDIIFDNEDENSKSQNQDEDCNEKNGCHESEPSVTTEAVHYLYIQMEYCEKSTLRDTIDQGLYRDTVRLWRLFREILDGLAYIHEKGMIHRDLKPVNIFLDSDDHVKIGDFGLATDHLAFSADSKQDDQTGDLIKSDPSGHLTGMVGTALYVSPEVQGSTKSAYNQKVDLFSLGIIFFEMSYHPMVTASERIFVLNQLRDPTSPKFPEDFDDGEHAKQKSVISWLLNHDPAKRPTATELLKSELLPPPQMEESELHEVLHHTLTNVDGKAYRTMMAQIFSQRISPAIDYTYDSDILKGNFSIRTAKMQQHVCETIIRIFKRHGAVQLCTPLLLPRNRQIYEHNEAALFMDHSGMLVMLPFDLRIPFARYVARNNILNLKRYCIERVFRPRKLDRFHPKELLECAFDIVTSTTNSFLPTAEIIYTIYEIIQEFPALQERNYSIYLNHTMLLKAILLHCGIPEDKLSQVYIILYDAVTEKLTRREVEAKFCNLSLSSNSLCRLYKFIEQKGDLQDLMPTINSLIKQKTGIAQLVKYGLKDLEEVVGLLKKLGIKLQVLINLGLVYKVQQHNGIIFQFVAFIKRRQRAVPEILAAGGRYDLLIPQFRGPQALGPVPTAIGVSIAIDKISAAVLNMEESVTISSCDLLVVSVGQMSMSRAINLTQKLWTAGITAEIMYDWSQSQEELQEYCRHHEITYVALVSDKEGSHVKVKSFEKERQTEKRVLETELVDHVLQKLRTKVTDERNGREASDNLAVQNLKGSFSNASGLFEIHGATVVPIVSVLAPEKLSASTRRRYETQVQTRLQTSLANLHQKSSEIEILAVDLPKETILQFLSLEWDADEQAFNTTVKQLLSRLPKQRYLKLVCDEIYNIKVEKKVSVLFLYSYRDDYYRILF
Conditions: not given
For orientation: In TR-FRET formats the signal depends on donor and acceptor labels being close together.
The IC50 is the point on the concentration scale where inhibition reaches its midpoint. Low values mean inhibition by little substance, high ones a need for much substance. Compound `COc1ncc(Cl)cc1S(=O)(=O)Nc1ccc(F)c(-c2ccc3c(C(=O)NC4CCCOC4)n[nH]c3c2F)c1F` (stereo not drawn) [Example 55, 6-[3-(5-Chloro-2-methoxypyridine-3-sulfonamido)-2,6-difluorophenyl]-7-fluoro-N-(oxan-3-yl)-1H-indazole-3-carboxamide] showed an IC50 of under 500 nM.
The compound `CNC(=O)c1n[nH]c2c(F)c(-c3c(F)ccc(NS(=O)(=O)c4cccc5c4ncn5C)c3F)ccc12` [Example 69, 6-[2,6-Difluoro-3-(1-methyl-1,3-benzodiazole-4-sulfonamido)phenyl]-7-fluoro-N-methyl-1H-indazole-3-carboxamide] came in with an IC50 of 500 to 2500 nM.
`COc1ncc(Cl)cc1S(=O)(=O)Nc1ccc(F)c(-c2ccc3c(C(=O)NC4CCN(C(C)=O)C4)n[nH]c3c2F)c1F` (stereo not drawn) [Example 51, N-(1-acetylpyrrolidin-3-yl)-6-[3-(5-chloro-2-methoxypyridine-3-sulfonamido)-2,6-difluorophenyl]-7-fluoro-1H-indazole-3-carboxamide] yielded an IC50 of under 500 nM.
Still for that read-out and setting: next, `COc1ncc(Cl)cc1S(=O)(=O)Nc1ccc(F)c(-c2ccc3c(NC(C)=O)n[nH]c3c2F)c1F` [Example 44, N-(6-(3-(5-chloro-2-methoxypyridine-3-sulfonamido)-2,6-difluorophenyl)-7-fluoro-1H-indazol-3-yl)acetamide]: under 500 nM.
`CNC(=O)c1n[nH]c2c(F)c(-c3c(F)ccc(NS(=O)(=O)c4cccc5ncn(C)c45)c3F)ccc12` [Example 63, 6-[2,6-Difluoro-3-(3-methyl-1,3-benzodiazole-4-sulfonamido)phenyl]-7-fluoro-N-methyl-1H-indazole-3-carboxamide] yielded an IC50 of under 500 nM.
The compound `COc1ncc(Cl)cc1S(=O)(=O)Nc1ccc(F)c(-c2ccc3c(C(=O)NCC(C)C)n[nH]c3c2F)c1F` [Example 48, 6-[3-(5-Chloro-2-methoxypyridine-3-sulfonamido)-2,6-difluorophenyl]-7-fluoro-N-(2-methylpropyl)-1H-indazole-3-carboxamide] came in with a half-inhibitory concentration (IC50) of under 500 nM.
Same read-out and setting: in the case of `COc1ncc(Cl)cc1S(=O)(=O)Nc1ccc(F)c(-c2ccc3c(C(=O)NC4CCNC4=O)n[nH]c3c2F)c1F` (stereo not drawn) [Example 54, 6-[3-(5-Chloro-2-methoxypyridine-3-sulfonamido)-2,6-difluorophenyl]-7-fluoro-N-(2-oxopyrrolidin-3-yl)-1H-indazole-3-carboxamide] it was under 500 nM.
`CCC(C)NC(=O)c1n[nH]c2c(F)c(-c3c(F)ccc(NS(=O)(=O)c4cc(Cl)cnc4OC)c3F)ccc12` (stereo not drawn) [Example 56, 6-[3-(5-Chloro-2-methoxypyridine-3-sulfonamido)-2,6-difluorophenyl]-7-fluoro-N-(sec-butyl)-1H-indazole-3-carboxamide]: the IC50 is under 500 nM.
For the compound `CCCC(C)NC(=O)c1n[nH]c2c(F)c(-c3c(F)ccc(NS(=O)(=O)c4cc(Cl)cnc4OC)c3F)ccc12` (stereo not drawn) [Example 59, 6-[3-(5-Chloro-2-methoxypyridine-3-sulfonamido)-2,6-difluorophenyl]-7-fluoro-N-(pentan-2-yl)-1H-indazole-3-carboxamide], the IC50 is under 500 nM.
`CCNC(=O)c1n[nH]c2c(F)c(-c3c(F)ccc(NS(=O)(=O)c4cc(Cl)cnc4OC)c3F)ccc12` [Example 49, 6-(3-((5-Chloro-2-methoxypyridine)-3-sulfonamido)-2,6-difluorophenyl)-N-ethyl-7-fluoro-1H-indazole-3-carboxamide] showed a concentration for half-maximal inhibition (IC50) of under 500 nM.
Still for that read-out and setting: in the case of `COc1ncc(Cl)cc1S(=O)(=O)Nc1ccc(F)c(-c2ccc3c(C(=O)NC(C)CCO)n[nH]c3c2F)c1F` (stereo not drawn) [Example 60, 6-[3-(5-chloro-2-methoxypyridine-3-sulfonamido)-2,6-difluorophenyl]-7-fluoro-N-(4-hydroxybutan-2-yl)-1H-indazole-3-carboxamide] it was under 500 nM; in that of `CNC(=O)c1n[nH]c2c(F)c(-c3c(F)ccc(NS(=O)(=O)c4cc(F)cc(CO)c4)c3F)ccc12` [Example 42, 6-[2,6-difluoro-3-[3-fluoro-5-(hydroxymethyl)benzenesulfonamido]phenyl]-7-fluoro-N-methyl-1H-indazole-3-carboxamide], under 500 nM; in that of `COc1ncc(Cl)cc1S(=O)(=O)Nc1ccc(F)c(-c2ccc3c(C(=O)NCC(C)O)n[nH]c3c2F)c1F` (stereo not drawn) [Example 52, 6-[3-(5-Chloro-2-methoxypyridine-3-sulfonamido)-2,6-difluorophenyl]-7-fluoro-N-(2-hydroxypropyl)-1H-indazole-3-carboxamide], under 500 nM.
In turn, `COc1ncc(Cl)cc1S(=O)(=O)Nc1ccc(F)c(-c2ccc3c(C(=O)NC(C)CO)n[nH]c3c2F)c1F` (stereo not drawn) [Example 53, 6-[3-(5-Chloro-2-methoxypyridine-3-sulfonamido)-2,6-difluorophenyl]-7-fluoro-N-(1-hydroxypropan-2-yl)-1H-indazole-3-carboxamide] gave an IC50 of under 500 nM.
For `COc1ncc(Cl)cc1S(=O)(=O)Nc1ccc(F)c(-c2ccc3c(C(=O)NC4CCC(=O)N(C)C4)n[nH]c3c2F)c1F` (stereo not drawn) [Example 50, 6-[3-(5-Chloro-2-methoxypyridine-3-sulfonamido)-2,6-difluorophenyl]-7-fluoro-N-(1-methyl-6-oxopiperidin-3-yl)-1H-indazole-3-carboxamide], the concentration for half-maximal inhibition (IC50) is under 500 nM.
Consider `CNC(=O)c1n[nH]c2c(F)c(-c3c(F)ccc(NS(=O)(=O)c4ccc5ccoc5c4)c3F)ccc12` [Example 68], for which the IC50 is 500 to 2500 nM.

Another test has as its target T1, GCN2. The test is described as follows: TR-FRET biochemical assay for inhibition of GCN2 (Example 106, for Example 1-4BB). The note with it: Table 8.
Compound `COc1ncc(Cl)cc1S(=O)(=O)Nc1ccc(F)c(-c2ccc3c(-c4ccccn4)n[nH]c3c2F)c1F` [Example 2CD, 5-chloro-N-(2,4-difluoro-3-(7-fluoro-3-(pyridin-2-yl)-1H-indazol-6-yl)phenyl)-2-methoxypyridine-3-sulfonamide] yielded an IC50 of 500 to 2500 nM.
On to `Cc1ccc(Cl)cc1S(=O)(=O)Nc1ccc(F)c(-c2ccc3c(-c4ncc[nH]4)n[nH]c3c2)c1F` [Example 2AW, N-(3-(3-(1H-imidazol-2-yl)-1H-indazol-6-yl)-2,4-difluorophenyl)-5-chloro-2-methylbenzenesulfonamide], for which the IC50 was under 500 nM.

The same test, now with this note: Table 9.
`Cc1ccc(S(=O)(=O)Nc2ccc(F)c(-c3ccc4c(C(=O)NCCCO)n[nH]c4c3F)c2F)c(C)n1` [Example 3CP, 6-(3-((2,6-dimethylpyridine)-3-sulfonamido)-2,6-difluorophenyl)-7-fluoro-N-(3-hydroxypropyl)-1H-indazole-3-carboxamide] gave an IC50 of 500 to 2500 nM.
`COc1ncc(CO)cc1S(=O)(=O)Nc1ccc(F)c(-c2ccc3c(C(=O)NCCCO)n[nH]c3c2F)c1F` [Example 3CN, 6-(2,6-difluoro-3-((5-(hydroxylmethyl)-2-methoxy-pyridine)-3-sulfonamido)-phenyl)-7-fluoro-N-(3-hydroxypropyl)-1H-indazole-3-carboxamide] gave an IC50 of 2500 to 10000 nM.
`COc1ncc(F)cc1S(=O)(=O)Nc1ccc(F)c(-c2ccc3c(C(=O)Nc4cccn(C)c4=O)n[nH]c3c2F)c1F` [Example 3BW, 6-(2,6-difluoro-3-((5-fluoro-2-methoxypyridine)-3-sulfonamido)phenyl)-7-fluoro-N-(1-methyl-2-oxo-1,2-dihydropyridin-3-yl)-1H-indazole-3-carboxamide] registered an IC50 of 2500 to 10000 nM.
